# Source: paper PMC11063903, “Engineering a human P2X2 receptor with altered ligand selectivity in yeast” (The Journal of Biological Chemistry, 2024)
# Where a chain is given by its changes, count along the chain named.
# How the values were obtained:
# P2X2 F301W+A304W = molecular target: T1, P2X2 F301W+A304W (Homo sapiens, UniProt Q9UBL9, A304W/F301W); test: Fast GCaMP-mScarletI assay in yeast, P2X2 F301W+A304W; assay type: cell-based; conditions: for Bottom, best fit value / Hillslope, best fit value / Top, best fit value: four-parameter logistic fit of ΔF/ΔT
# T1 construct: expressed in transfected cells; host or cells: S. cerevisiae BY4741 background
# T1 sequence (Q9UBL9 1-471 F301W/A304W): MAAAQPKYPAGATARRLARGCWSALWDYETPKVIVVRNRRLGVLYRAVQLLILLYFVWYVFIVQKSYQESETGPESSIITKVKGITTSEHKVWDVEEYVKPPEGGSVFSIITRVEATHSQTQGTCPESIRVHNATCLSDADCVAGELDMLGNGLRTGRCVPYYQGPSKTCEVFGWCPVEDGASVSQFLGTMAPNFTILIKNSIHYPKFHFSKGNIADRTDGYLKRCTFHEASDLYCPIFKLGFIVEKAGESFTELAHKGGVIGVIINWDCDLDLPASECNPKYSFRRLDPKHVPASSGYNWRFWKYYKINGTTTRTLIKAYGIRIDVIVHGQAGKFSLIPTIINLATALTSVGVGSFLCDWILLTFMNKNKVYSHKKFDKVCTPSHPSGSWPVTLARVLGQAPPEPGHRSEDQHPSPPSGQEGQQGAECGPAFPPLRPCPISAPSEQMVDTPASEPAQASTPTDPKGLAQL
# Method: (§1) Figure 4 Unnatural-ligand gating in LBD libraries.A, WT P2X2 was tested with 1 mM ATP, 500 μM AMP-PNP, and compared to ATP with the broken receptor (K81C K83C) control with 1 mM ATP in the fast GCaMP-mScarletI assay (n = 3). […] B, heat map summarizing AMP-PNP signaling (ΔF/ΔT, fast GCaMP-mScarletI assay) in the site-saturation libraries (n = 2–3). All values are normalized to WT P2X2 with saturating amounts of AMP-PNP (500 μM) and therefore represent low signal (ΔF/ΔT) compared to the ATP ligand. C, F301W, F303Y, and A304W were combinatorially combined and tested against the WT, K81C K83C broken P2X2, and the single mutant clones with both ATP (1 mM, black) and AMP-PNP (500 μM, pink). […] Values here represent signal onset and are not normalized to a positive control (n = 2–5). D–K, dose response of each P2X variant with both ATP (black) and AMP-PNP (pink) in the fast GCaMP-mScarletI assay (n = 3). Statistics were performed via one-way ANOVA with Dunnett’s multiple comparisons with to the “broken” K81C K83C negative control. ∗ represents a p value ≤0.05, ∗∗ is p ≤ 0.01, and ∗∗∗ is p ≤ 0.001.
# The combined mutations were synergistic, with F303Y + A304W having a predicted additive effect of ca. Ten-fold, relative to the 73-fold seen.
# (§2) GCaMP assays were performed as follows. P2X2 GCaMP strains were designed with a bi-cistronic reporter, in which the GCaMP protein was followed by a 2A peptide and a mScarletI reporter ([53]). The co-translated mScarletI was designed to act as a control for plasmid loss, GCaMP breakage via nonsense mutation, and contamination. […] P2X2-GCaMP strains were cultured and induced as previously described. Samples were induced for 24 h to allow for the accumulation of the mature GCaMP protein. Cells were washed three times in 0.1 M MES/Tris buffer and resuspended with MES/Tris with supplemental calcium. Cells were loaded onto a black, clear bottom microplate and imaged on a FlexStation3 plate reader. Samples were imaged in “flex” mode. Samples were imaged for 48 s at an interval of 1.6 s. Fluorescence was measured with an excitation at 485 nm, and emission 525 nm. At the 21 s mark, 100 μl ligand solution was transferred to the cells. For strains with mScarlet, fluorescence was read with excitation 570 nm/emission 610 nm. Slopes were calculated from the last 6 points of measurement and were normalized to the positive control samples. Any replicate in which the mScarlet value was measured to be over 2 standard deviations less than the mean for that set was discarded from further analysis.
# (§3) For multiple comparisons in the site-saturation screening data, One-way ANOVA with Dunnett’s multiple comparisons test was performed where every sample was compared to the “broken” negative control. Significance was plotted where ∗ represents a p value ≤0.05, ∗∗ is p ≤0.01, and ∗∗∗ is p ≤0.001. Dose–response curves were fit with nonlinear regression software using a four-parameter logistic curve. All statistics were calculated and plotted in Graphpad Prism software.
# P2X2 A304W = molecular target: T2, P2X2 A304W (Homo sapiens, UniProt Q9UBL9, A304W); test: Fast GCaMP-mScarletI assay in yeast, P2X2 A304W; assay type: cell-based; conditions: for Bottom, best fit value / Hillslope, best fit value / Top, best fit value: four-parameter logistic fit of ΔF/ΔT; for Bottom, best fit value / Hillslope, best fit value / Top, best fit value / EC50: n = 3; for EC50: four-parameter logistic fit, unit inferred, unit M, read-out: EC50, best fit value
# T2 construct: expressed in transfected cells; host or cells: S. cerevisiae BY4741 background
# T2 sequence (Q9UBL9 1-471 A304W): T1 sequence (Q9UBL9 1-471 F301W/A304W) with W301F
# Method: as §1
# Given that the yeast-based screen seemed to recapitulate important structural and functional features of human ion channel function, we hypothesized that it might be possible to engineer new P2X2 functionalities in yeast, including new ligand specificity. […] We screened our 133-member library in the presence of 500 μM AMP-PNP (Fig. S7). While the AMP-PNP signal was uniformly low, three substitutions (F301W, F303Y, and A304W) increased signaling 2.5 to 2.8 times relative to the negative control receptor (Figs. 4B, and S7, D, F, and G). To gain a more complete view of the properties of these mutants, dose–response curves were generated with ATP and AMP-PNP (Fig. 4, D–G, and Table S2).
# as §2, §3
Structure (SMILES),improvement compared to the WT channel (rate of signal onset ΔF/ΔT) (P2X2 F301W+A304W; at 500 μM AMP-PNP) [fold],"Bottom, best fit value (P2X2 F301W+A304W; n = 3)","Hillslope, best fit value (P2X2 F301W+A304W; n = 3)","Top, best fit value (P2X2 F301W+A304W; n = 3)","activity compared to the wild-type (P2X2 A304W; AMP-PNP dose-response, high ligand concentrations) [fold]","Bottom, best fit value (P2X2 A304W)","Hillslope, best fit value (P2X2 A304W)","Top, best fit value (P2X2 A304W)",EC50 (P2X2 A304W) [µM],"EC50 (P2X2 F301W+A304W; four-parameter logistic fit, n = 3, unit inferred, unit M, read-out: EC50, best fit value) [µM]"
Nc1ncnc2c1ncn2[C@@H]1O[C@H](COP(=O)(O)OP(=O)(O)NP(=O)(O)O)[C@@H](O)[C@H]1O [AMP-PNP],24,-0.492,1.649,81.84,55.87,-0.1131,1.702,50.72,621,
Nc1ncnc2c1ncn2[C@@H]1O[C@H](COP(=O)(O)OP(=O)(O)OP(=O)(O)O)[C@@H](O)[C@H]1O [ATP],,-5.28,1.07,207.50,,0.89,2.41,67.64,16.6,20.7
